Values after ≈ are worked out from the molar mass of the structure shown. Values belong to the compound of their own block, whether it stands above or below them.
How the values were obtained:
Assay in all cases: ≥ marks a high value that may be exact or a test limit, other limits are often not marked, values filed in µg/mL are converted to µM
[1] = tested on: Klebsiella pneumoniae ATCC 10031
Candida krusei = tested on: Candida krusei
Aspergillus ustus = tested on: Aspergillus ustus
[2] = tested on: Pseudomonas aeruginosa ATCC 27853
[3] = tested on: Staphylococcus aureus ATCC 43300
[4] = tested on: Aspergillus fumigatus ATCC MYA-1163
[5] = tested on: Staphylococcus aureus ATCC 25923
Fusarium oxysporum = tested on: Fusarium oxysporum
[6] = tested on: Aspergillus nidulans AZN 2867
Candida tropicalis = tested on: Candida tropicalis
Candida glabrata = tested on: Candida glabrata
[7] = tested on: Candida albicans ATCC 24433
Fusarium solani AZN 6836 = tested on: Fusarium solani AZN 6836
[8] = tested on: Escherichia coli ATCC 25922
[9] = tested on: Cryptococcus neoformans CM133
[10] = tested on: Enterococcus faecalis ATCC 29212
[11] = tested on: Salmonella enterica subsp. enterica serovar Enteritidis
Rhizopus oryzae AZN 8892 = tested on: Rhizopus oryzae AZN 8892
[12] = tested on: Candida albicans ATCC 90028
[13] = tested on: Pseudomonas aeruginosa OT97
[14] = tested on: Trichosporon beigelii KCTC 7707
[15] = tested on: Staphylococcus aureus Cowan 1
Bacillus megaterium Bm11 = tested on: Bacillus megaterium Bm11
[16] = tested on: Proteus vulgaris OX19 ATCC 6380
Micrococcus luteus Ml11 = tested on: Micrococcus luteus Ml11
[17] = tested on: Malassezia furfur KCTC 7744
[18] = tested on: Staphylococcus aureus JC-1
[19] = tested on: Trichophyton rubrum KCTC 6345
[20] = tested on: Shigella flexneri ATCC 203
[21] = tested on: Bacillus subtilis ATCC 6633
Escherichia coli D21 = tested on: Escherichia coli D21
[22] = tested on: Staphylococcus epidermidis C621
Escherichia coli DC2 = tested on: Escherichia coli DC2
Escherichia coli UB1005 = tested on: Escherichia coli UB1005
[23] = tested on: Corynebacterium xerosis C875
Bacillus cereus = tested on: Bacillus cereus
Bacillus anthracis = tested on: Bacillus anthracis
Staphylococcus aureus = tested on: Staphylococcus aureus
Escherichia coli = tested on: Escherichia coli
[24] = tested on: Bacillus anthracis Sterne 34F2
[25] = tested on: Burkholderia thailandensis
Escherichia coli W3110 = tested on: Escherichia coli W3110
[26] = tested on: Staphylococcus aureus UL12
[27] = tested on: Bacillus subtilis ATCC 9372

Compound: CC(C)C[C@@H]1NC(=O)[C@@H](NC(=O)[C@@H](N)CC(=O)O)CSSC[C@@H](C(=O)O)NC(=O)CNC(=O)[C@H](CCC(=O)O)NC(=O)[C@@H]2CSSC[C@@H]3NC(=O)[C@H](C(C)C)NC(=O)[C@H](CCCN=C(N)N)NC(=O)[C@H](CCCN=C(N)N)NC(=O)[C@@H]4CSSC[C@H](NC(=O)[C@H](CCCCN)NC(=O)[C@H](CC(C)C)NC(=O)[C@H](CO)NC(=O)[C@@H]5CCCN5C(=O)[C@H](CO)NC(=O)[C@H](CSSC[C@H](NC(=O)[C@@H]5CCCN5C(=O)CNC(=O)[C@H](CCCCN)NC(=O)[C@H](Cc5ccc(O)cc5)NC(=O)[C@H](CCCN=C(N)N)NC(=O)CNC(=O)[C@H](CO)NC1=O)C(=O)N[C@@H](C)C(=O)N[C@@H](C(C)C)C(=O)N[C@@H](Cc1c[nH]c5ccccc15)C(=O)N[C@@H](CC(=O)O)C(=O)N[C@@H](CC(N)=O)C(=O)N[C@@H](CCC(=O)O)C(=O)N[C@@H]([C@@H](C)O)C(=O)N4)NC(=O)[C@H](Cc1cnc[nH]1)NC(=O)CNC(=O)[C@H](CO)NC(=O)[C@H](CO)NC(=O)[C@H](CCCN=C(N)N)NC(=O)CNC(=O)[C@H](CCC(=O)O)NC(=O)[C@H](CCC(=O)O)NC(=O)[C@H](CCCCN)NC3=O)C(=O)N[C@@H](Cc1c[nH]c3ccccc13)C(=O)N2 [DCLSGRYKGPCAVWDNETCRRVCKEEGRSSGHCSPSLKCWCEGC]
MIC [1]: ≥ 50 µM
MIC (Candida krusei): ≥ 50 µM
MIC (Aspergillus ustus): 25 µM (≈ 122 µg/mL)
MIC [2]: > 50 µM
MIC [3]: > 50 µM
MIC [4]: 6.25 µM (≈ 30.6 µg/mL)
MIC [5]: > 50 µM
MIC (Fusarium oxysporum): 6.25 µM (≈ 30.6 µg/mL)
MIC [6]: ≥ 50 µM
MIC (Candida tropicalis): ≥ 50 µM
MIC (Candida glabrata): ≥ 50 µM
MIC [7]: ≥ 50 µM
MIC (Fusarium solani AZN 6836): 25 µM (≈ 122 µg/mL)
MIC [8]: > 50 µM
MIC [9]: ≥ 50 µM
MIC [10]: > 50 µM
MIC [11]: ≥ 50 µM
MIC (Rhizopus oryzae AZN 8892): ≥ 50 µM

Compound: CC[C@H](C)[C@H](NC(=O)[C@H](CC(C)C)NC(=O)[C@H](C)NC(=O)[C@@H]1CCCN1C(=O)[C@H](Cc1ccccc1)NC(=O)[C@@H](NC(=O)[C@H](CCCCN)NC(=O)[C@H](CO)NC(=O)[C@H](C)NC(=O)[C@@H](NC(=O)[C@H](CCCN=C(N)N)NC(=O)[C@H](Cc1ccccc1)NC(=O)[C@@H](NC(=O)[C@@H](NC(=O)[C@@H]1CCCN1C(=O)[C@@H](N)CC(C)C)C(C)C)C(C)C)C(C)C)C(C)C)C(=O)N[C@@H](CO)C(=O)N[C@@H](CCCCN)C(=O)N[C@@H](CC(C)C)C(=O)N[C@H](C(=O)O)[C@@H](C)O [LPVVFRVASKVFPALISKLT]
MIC (Bacillus cereus): ≥ 117 µM
MIC (Bacillus anthracis): ≥ 58.6 µM
MIC (Staphylococcus aureus): 117 µM (≈ 256 µg/mL)
MIC (Escherichia coli): > 117 µM

Compound: CC[C@H](C)[C@H](N)C(=O)N[C@@H](CC(C)C)C(=O)NCC(=O)N1CCC[C@H]1C(=O)N[C@H](C(=O)N[C@@H](CC(C)C)C(=O)NCC(=O)N[C@@H](CC(C)C)C(=O)N[C@H](C(=O)N[C@@H](CO)C(=O)N[C@@H](CC(=O)O)C(=O)N[C@H](C(=O)N[C@@H](CC(C)C)C(=O)N[C@@H](CC(=O)O)C(=O)N[C@@H](CC(=O)O)C(=O)N[C@H](C(=O)N[C@@H](CC(C)C)C(=O)NCC(=O)N[C@H](C(=O)N[C@@H](CC(C)C)C(=O)O)[C@@H](C)CC)C(C)C)[C@@H](C)O)C(C)C)C(C)C [ILGPVLGLVSDTLDDVLGIL]
MIC [24]: ≥ 100 µM
MIC [25]: ≥ 50 µM
MIC (Escherichia coli W3110): ≥ 180 µM
MIC [26]: ≥ 180 µM
MIC [27]: ≥ 50 µM

The next lines start with the values.

MIC [12]: 6.3 µM (≈ 12.3 µg/mL)
MIC [13]: ≥ 617 µM
MIC [14]: 6.3 µM (≈ 12.3 µg/mL)
MIC [15]: ≥ 1000 µM
MIC (Bacillus megaterium Bm11): 1.95 µM (≈ 3.8 µg/mL)
MIC [16]: ≥ 1000 µM
MIC (Micrococcus luteus Ml11): 23 µM (≈ 44.8 µg/mL)
MIC [17]: 12.5 µM (≈ 24.3 µg/mL)
MIC [18]: ≥ 94 µM
MIC [19]: 25 µM (≈ 48.7 µg/mL)
MIC [20]: ≥ 205 µM
MIC [21]: 20 µM (≈ 38.9 µg/mL)
MIC (Escherichia coli D21): ≥ 410 µM
Compound: CC[C@H](C)[C@H](NC(=O)[C@H](CCCCN)NC(=O)[C@@H](NC(=O)[C@@H](NC(=O)[C@H](CCC(N)=O)NC(=O)CNC(=O)[C@H](Cc1cnc[nH]1)NC(=O)[C@H](CCC(N)=O)NC(=O)[C@H](CC(N)=O)NC(=O)[C@H](CCC(N)=O)NC(=O)[C@@H](NC(=O)[C@H](CCCCN)NC(=O)[C@@H](N)Cc1ccccc1)C(C)C)C(C)C)C(C)C)C(=O)N[C@@H](Cc1ccccc1)C(=O)N[C@@H](Cc1cnc[nH]1)C(=O)N[C@@H](Cc1cnc[nH]1)C(=O)O [FKVQNQHGQVVKIFHH]

MIC [22]: 2 µM (≈ 4.76 µg/mL)
MIC (Escherichia coli DC2): 16 µM (≈ 38 µg/mL)
MIC (Escherichia coli UB1005): ≥ 32 µM
MIC [23]: 0.25 µM (≈ 0.594 µg/mL)
Compound: CC(C)C[C@H](NC(=O)[C@H](C)NC(=O)[C@H](C)NC(=O)[C@H](C)NC(=O)[C@H](CCCCN)NC(=O)[C@@H](N)CCCCN)C(=O)N[C@@H](C)C(=O)N[C@@H](C)C(=O)N[C@@H](C)C(=O)N[C@@H](C)C(=O)N[C@@H](C)C(=O)N[C@@H](CC(C)C)C(=O)N[C@@H](C)C(=O)N[C@@H](C)C(=O)N[C@@H](Cc1c[nH]c2ccccc12)C(=O)N[C@@H](C)C(=O)N[C@@H](C)C(=O)N[C@@H](CC(C)C)C(=O)N[C@@H](C)C(=O)N[C@@H](C)C(=O)N[C@@H](C)C(=O)N[C@@H](CCCCN)C(=O)N[C@@H](CCCCN)C(=O)N[C@@H](CCCCN)C(=O)N[C@@H](CCCCN)C(N)=O [KKAAALAAAAALAAWAALAAAKKKK]

From DBAASP
